US7320879B2, “Method of determining site-specificity and kit therefor” (Biacore AB, priority 2002, dated 2008)
Values belong to the compound of their own block, whether it stands above or below them.

What was measured:
HSA [1] = molecular target: T1, HSA (Homo sapiens, UniProt P02768); conditions: known site specificity of reference compounds (crystallography studies); cited from earlier work
T1 construct: purchased Sigma A-4327

HSA [2] = molecular target: T1, HSA; assay: SPR (BIACORE S51) competition assay for HSA-binding site specificity, dissociation-phase response of mixtures; conditions: for effect of additional reference compounds on dissociation response of S1 on HSA: S1 constant 0.1 μM, reference 0-50 μM, d2 report point, FIG. 6
[3] = system: protein kinase (C-terminal His-tag); assay: SPR binding profiles of binders against captured protein kinase, single concentration; conditions: 10 μM ATP; FIG. 8
Excerpt: A BIACORE® S51 instrument (Biacore AB, Uppsala, Sweden) was used. This instrument has two Y-type flow cells which allow a dual flow of fluids over a sensor chip surface, so-called hydrodynamic addressing, as described in, for example, EP-B1-1021703 (the disclosure of which is incorporated by reference herein). The instrument uses three parallel detection spots on the sensor chip. As sensor chip was used Series S Sensor Chip CM5 (Biacore AB, Uppsala, Sweden) which has a gold-coated surface with a covalently linked carboxymethyl-modified dextran polymer hydrogel. The output from the instrument is a “sensorgram” which is a plot of detector response (measured in “resonance units”, RU) as a function of time. An increase of 1000 RU corresponds to an increase of mass on the sensor surface of approximately 1 ng/mm^2.
100 μg/ml of Penta-His™ antibody, BSA-free (Qiagen, Venlo, Netherlands) in 0.15 M NaCl was diluted to 30 μg/ml in 10 mM sodium acetate buffer pH 5.0 and immobilized on a Series S Sensor Chip CM5 by amine coupling according to the manufacturer's instructions. The contact time was 10 min, the flow rate was 10 μl/min, and 10 mM PBS was used as running buffer. A little less than 12000 RU of antibody were immobilized. […]

T1 sequence (P02768 25-609): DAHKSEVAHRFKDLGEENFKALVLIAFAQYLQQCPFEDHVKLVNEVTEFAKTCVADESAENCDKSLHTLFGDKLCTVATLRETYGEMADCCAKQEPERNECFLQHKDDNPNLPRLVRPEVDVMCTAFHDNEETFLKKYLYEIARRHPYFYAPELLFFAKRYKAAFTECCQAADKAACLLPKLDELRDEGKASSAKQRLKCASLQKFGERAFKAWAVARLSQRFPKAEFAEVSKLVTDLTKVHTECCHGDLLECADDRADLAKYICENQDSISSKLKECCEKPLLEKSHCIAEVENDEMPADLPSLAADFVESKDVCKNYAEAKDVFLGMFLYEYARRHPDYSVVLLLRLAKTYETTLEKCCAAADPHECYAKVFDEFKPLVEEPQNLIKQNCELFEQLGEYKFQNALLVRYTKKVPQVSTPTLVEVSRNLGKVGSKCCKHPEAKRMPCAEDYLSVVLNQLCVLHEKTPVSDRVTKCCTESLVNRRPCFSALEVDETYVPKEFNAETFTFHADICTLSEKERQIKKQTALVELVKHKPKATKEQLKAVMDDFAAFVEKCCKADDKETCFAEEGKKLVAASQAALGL

SMILES: O=C1NC(=O)C(c2ccccc2)(c2ccccc2)N1 [phenyloin]
known HSA-binding site (HSA [1]): site II
effect of additional reference compounds on dissociation response of S1 on HSA (HSA [2]): follow the behaviour of warfarin and naproxen respectively

effect of additional reference compounds on dissociation response of S1 on HSA (HSA [2]): deviates from the behaviour of warfarin
SMILES: COc1cc(NS(=O)(=O)c2ccc(N)cc2)nc(OC)n1 [sulfadimethoxine]
known HSA-binding site (HSA [1]): site I

SMILES: C[C@H]1O[C@@H](O[C@H]2[C@@H](O)C[C@H](O[C@H]3[C@@H](O)C[C@H](O[C@H]4CC[C@@]5(C)[C@H](CC[C@@H]6[C@@H]5CC[C@]5(C)[C@@H](C7=CC(=O)OC7)CC[C@]65O)C4)O[C@@H]3C)O[C@@H]2C)C[C@H](O)[C@@H]1O [digitoxin]
effect of the reference compound on binding/dissociation phase of S1 on HSA (HSA [2]): does not seem to affect the dissociation phase much

SMILES: Nc1ncnc2c1ncn2[C@@H]1O[C@H](COP(=O)(O)OP(=O)(O)OP(=O)(O)O)[C@@H](O)[C@H]1O [ATP, adenosine triphosphate]
association/dissociation profile on the protein kinase [3]: very rapid binding and dissociation profile
